Target: T1, PP2A (Homo sapiens, UniProt P62714)
T1 construct: endogenous in cells; host or cells: 293T
Test: PP2A activity in 293T cells stimulated with ATG analogues
Format: cell-based
Settings: 10 μM, DMSO as reference, FIG. 11
Protocol: The biological activities of the three compounds were determined by measuring the downstream PP2A activity and the degree of phosphorylation of NF-kB. […] The concentrations of ATG and the three new compounds were 10 μM.

T1 sequence (P62714 whole entry): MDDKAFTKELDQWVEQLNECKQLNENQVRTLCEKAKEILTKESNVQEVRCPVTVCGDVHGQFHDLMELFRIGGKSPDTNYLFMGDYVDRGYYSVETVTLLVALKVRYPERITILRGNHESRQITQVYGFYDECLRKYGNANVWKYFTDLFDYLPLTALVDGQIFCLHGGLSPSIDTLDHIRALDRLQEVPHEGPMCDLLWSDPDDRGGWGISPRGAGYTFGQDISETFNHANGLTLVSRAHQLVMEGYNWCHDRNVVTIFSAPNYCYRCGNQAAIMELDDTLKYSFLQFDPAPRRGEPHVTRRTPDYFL

Substance: Potassium trifluoro (4-(5-(3,4,5-trimethoxyphenyl)-1,2,4-oxadiazol-3-yl) phenyl) borate [BT282]
- effect on PP2A activity relative to native ATG: higher activity to PP2A than natural ATG

— US9994533B2, “Method of preparing ATG's analogue, and the application of ATG and it's analogue” (Longhua Hospital Shanghai University of Traditional Chinese …, priority 2016, dated 2018)
